Test results published in the OligoGym collection.
“And” between values parts separate entries of the source, which are not always exact repeats. Identical values can stand only once. After the bases stand the sugars from the 5' end (letter, count) and the backbone: PS all phosphorothioate, else s phosphorothioate and o phosphodiester by linkage. Methylation of C is not given here. e = 2'-O-(2-methoxyethyl) (MOE); k = constrained ethyl (cEt); d = 2'-deoxy (DNA)

Target: IRF4
Conditions: ASO

Sequence	target mRNA inhibition (MM.1R, 1 µM)	target mRNA inhibition (SK-MEL-28, 4 µM)	further results
GTGTGATTAATTCTCC (sugars k3 d10 k3, PS)	64% and 44%	–	target mRNA inhibition (MM.1R, 0.0625 µM): -15%; target mRNA inhibition (MM.1R, 0.25 µM): 8%; target mRNA inhibition (MM.1R, 4 µM): 87%
AATTTCCATTGGAGGA (sugars k3 d10 k3, PS)	–	33%	–
AGGTAAGATCTCCATG (sugars k3 d10 k3, PS)	32%	–	–
GACTTAACCCACATCA (sugars k3 d10 k3, PS)	–	-166%	–
GAATAGGAAGATATCA (sugars k3 d10 k3, PS)	–	6%	–
ACCTTAACCAATCCCA (sugars k3 d10 k3, PS)	–	71%	–
AGCAGTGATGTCAGGT (sugars k2 d9 e3 k2, PS)	69% and 56%	–	–
ATATACATTGAGGCAT (sugars k3 d10 k3, PS)	-31%	–	–
ATGTTAGCCAATTCCT (sugars k2 d9 e3 k2, PS)	17% and 6%	–	–
TTGATGTGATAGCTGA (sugars k2 d9 e3 k2, PS)	17%	–	–
GTAGTATGAGAAACGG (sugars kkddddddddddkeke, PS)	28%	–	–
GACCTTTACTTCATTC (sugars k3 d10 k3, PS)	–	52%	–
AGAGACGCGGTGAGAG (sugars k3 d10 k3, PS)	-20%	–	–
TCTATAGTGTTCCAGG (sugars e1 k2 d9 k2 e2, PS)	58%	–	target mRNA inhibition (MM.1R, 0.074 µM): 22%; target mRNA inhibition (MM.1R, 0.222 µM): 33%; target mRNA inhibition (MM.1R, 0.666 µM): 52%; target mRNA inhibition (MM.1R, 2 µM): 74%
ATGGCAGTGGAGCTCC (sugars k3 d10 k3, PS)	–	56%	–
AACTAGCAGGGCACGC (sugars k3 d10 k3, PS)	2%	–	–
CAGAAATCACGAGGTT (sugars k3 d10 k3, PS)	25%	–	–
TTATGTTAGCCAATTC (sugars kkddddddddddkeke, PS)	11% and 16%	–	–
AGTATGAGAAACGGCC (sugars kddddddddddkekek, PS)	10%	–	–

Sequence	target mRNA inhibition (MM.1R, 1 µM)	target mRNA inhibition (SK-MEL-28, 4 µM)	further results
TAACTGGCTTCCAGGA (sugars k3 d10 k3, PS)	–	30%	–
GGACGCACGGAGAGGG (sugars k3 d10 k3, PS)	15%	–	–
CCATAGAGCCAGAGCA (sugars k3 d10 k3, PS)	–	64%	–
GCATTTGGAAAAAGCC (sugars k3 d10 k3, PS)	–	71%	–
CCTAAGTACCTGAAAT (sugars k3 d10 k3, PS)	–	11%	–
GGCAAGCTGAATGCTC (sugars k3 d10 k3, PS)	–	29%	–
AAGCTTGATAAAGGCT (sugars kkdddddddddkekek, PS)	-19%	–	–
TAGTTGTCTGGCTAGC (sugars k3 d10 k3, PS)	32% and 33%	–	target mRNA inhibition (MM.1R, 0.0625 µM): 4% and 7%; target mRNA inhibition (MM.1R, 0.25 µM): 16% and 24%; target mRNA inhibition (MM.1R, 4 µM): 68%
GCTCGGAGCGACCCAA (sugars k3 d10 k3, PS)	–	8%	–
TACTGCTGTACTTTCT (sugars k3 d10 k3, PS)	–	43%	–
ACCATGTTCCTGAAGA (sugars k3 d10 k3, PS)	–	44%	–
ATCCTGTAGTATGAGA (sugars k3 d10 k3, PS)	–	45%	–
GGCTCAACCTGGAAGG (sugars k3 d10 k3, PS)	–	29%	–
CTATAGTGTTCCAGGA (sugars kkdddddddddekeke, PS)	48%	–	–
GCTCCACAGCAAGGCC (sugars k3 d10 k3, PS)	–	58%	–
TGGTTGGCTGGTCTTT (sugars kkdddddddddekeke, PS)	60%	–	–
TTATGTTAGCCAATTC (sugars kddddddddddkekek, PS)	2% and 6%	–	–
AGTCTTTTCGCATAGA (sugars k3 d10 k3, PS)	–	45%	–
